For orientation: inhibition means the share of the control response that was lost under treatment. Low readings indicate little suppression, high ones strong suppression.

Here are results for one compound from article PMC6934184, “Selective DNA-PKcs inhibition extends the therapeutic index of localized radiotherapy and chemotherapy” (The Journal of Clinical Investigation, 2019).

The test deals with T1, PIK3C2A (PI3K-C2 alpha) (Homo sapiens, UniProt O00443).
T1 construct: purchased Thermo Fisher Scientific (Life Technologies) SelectScreen
Description: SelectScreen Adapta. Format: biochemical. The essentials: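 NU5455 was profiled across the SelectScreen Broad panel of kinase activity and binding assays. Z'LYTE reactions such as CSF1R ran at apparent Km ATP, while the Adapta CAMK1 assay used ATP listed as 10. Values are given as percent.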

T1 sequence (O00443 whole entry): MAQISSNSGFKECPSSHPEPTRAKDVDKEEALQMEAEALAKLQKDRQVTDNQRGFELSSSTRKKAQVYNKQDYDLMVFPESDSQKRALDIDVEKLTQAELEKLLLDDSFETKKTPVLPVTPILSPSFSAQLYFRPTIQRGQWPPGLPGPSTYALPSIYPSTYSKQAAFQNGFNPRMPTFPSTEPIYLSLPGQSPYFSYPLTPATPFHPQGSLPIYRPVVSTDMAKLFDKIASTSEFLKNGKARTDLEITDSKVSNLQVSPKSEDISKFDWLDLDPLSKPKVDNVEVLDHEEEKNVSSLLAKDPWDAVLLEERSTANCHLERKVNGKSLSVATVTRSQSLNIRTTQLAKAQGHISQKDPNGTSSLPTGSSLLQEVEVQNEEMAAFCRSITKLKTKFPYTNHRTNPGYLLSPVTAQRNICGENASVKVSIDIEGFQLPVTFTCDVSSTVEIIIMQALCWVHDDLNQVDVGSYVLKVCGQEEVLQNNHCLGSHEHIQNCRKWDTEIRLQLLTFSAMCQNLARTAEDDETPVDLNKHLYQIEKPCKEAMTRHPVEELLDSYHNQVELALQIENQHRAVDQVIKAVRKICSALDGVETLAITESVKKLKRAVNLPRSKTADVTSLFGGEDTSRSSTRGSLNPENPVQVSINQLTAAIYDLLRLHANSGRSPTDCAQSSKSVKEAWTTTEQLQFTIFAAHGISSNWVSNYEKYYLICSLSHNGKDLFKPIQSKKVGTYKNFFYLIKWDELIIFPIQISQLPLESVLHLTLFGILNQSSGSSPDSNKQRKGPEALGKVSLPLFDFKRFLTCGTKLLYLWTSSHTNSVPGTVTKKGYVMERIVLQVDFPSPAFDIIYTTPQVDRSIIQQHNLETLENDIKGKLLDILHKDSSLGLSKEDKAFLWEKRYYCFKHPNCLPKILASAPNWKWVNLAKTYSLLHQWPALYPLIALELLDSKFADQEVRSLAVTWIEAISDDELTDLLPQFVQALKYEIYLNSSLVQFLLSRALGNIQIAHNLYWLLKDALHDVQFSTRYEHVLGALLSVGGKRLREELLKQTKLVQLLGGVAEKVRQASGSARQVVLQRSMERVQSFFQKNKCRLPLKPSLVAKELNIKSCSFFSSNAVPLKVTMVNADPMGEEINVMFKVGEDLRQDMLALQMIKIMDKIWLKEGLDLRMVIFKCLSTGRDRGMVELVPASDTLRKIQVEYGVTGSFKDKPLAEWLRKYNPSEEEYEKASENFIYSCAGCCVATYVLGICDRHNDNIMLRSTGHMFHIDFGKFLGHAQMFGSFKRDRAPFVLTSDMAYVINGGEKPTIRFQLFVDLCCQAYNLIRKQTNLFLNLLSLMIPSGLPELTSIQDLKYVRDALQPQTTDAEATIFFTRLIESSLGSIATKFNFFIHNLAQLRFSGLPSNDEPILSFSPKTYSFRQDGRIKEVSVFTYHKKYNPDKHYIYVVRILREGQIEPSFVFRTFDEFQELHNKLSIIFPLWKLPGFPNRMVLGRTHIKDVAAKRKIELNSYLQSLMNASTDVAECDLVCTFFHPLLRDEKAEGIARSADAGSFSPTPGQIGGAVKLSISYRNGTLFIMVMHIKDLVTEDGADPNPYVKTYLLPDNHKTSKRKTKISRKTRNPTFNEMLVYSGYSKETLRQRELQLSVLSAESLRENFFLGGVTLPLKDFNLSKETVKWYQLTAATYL

The compound `CN(C(=O)CN1CCOCC1)c1ccc2sc3c(-c4cccc5c(=O)cc(N6CC7CCC(C6)O7)oc45)cccc3c2c1` [NU5455] came in with an inhibition at 1 µM of 1.3%.
